Tests used:
16 prostate cell lines = assay: IC50 grouping of the panel of prostate cell lines (MTS); assay type: cell-based; conditions: Homo sapiens
Description: Based on the IC50s, cell lines were classified into two groups: 11 cell lines with IC50 lower than 200 nM were designated as sensitive group, and 5 cell lines with IC50 at least greater than 2 μM were considered as resistant group. The separation of these two groups was quite well, and the sensitive/resistant demarcation of 200 nM is within the peak range of BMS-A plasma concentrations in patients treated with the doses near the maximum tolerated dose.
The effect of BMS-A (dasatinib) treatment on cell proliferation was measured using a MTS colorimetric method (Promega, Madison, Wis.). The optimum number of cells to seed in 96-well plates to achieve linearity were determined in pilot experiments. Cells were plated at density of 2000-5000 cells/well into 96-well plates and cultured overnight. Cells were then treated with dasatinib at serially diluted concentrations. Three days later, MTS was added to the medium and quantified on a SPECTRAMAX® photometric plate reader (Molecular Devices, Sunnyvale, Calif.) at 490 nm. The results were plotted against drug concentrations and IC50s were calculated using Prism4 software (GraphPad, San Diego, Calif.). […] The mean±standard deviation (SD) were calculated except for cell lines that were highly resistant to the compound where accurate IC50s were hard to obtain. […]

[1] = system: secreted uPA protein in PC3 cells; assay: uPA protein ELISA assay of culture medium; assay type: cell-based, human; conditions: different doses, 24 h, per 50,000 viable cells
Source text: FIG. 3. PLAU gene expression and regulation by dasatinib analyzed at mRNA and protein levels. (A) Differential baseline expression of PLAU gene between resistant (R, in black) and sensitive (S, in red) cell lines. The X-values are the expression level in log2-scale. The resistant cell line expressing high level of PLAU was WPMY1 and the sensitive cell line expressing low level of PLAU was LNCaP. (B) Down-regulation of PLAU mRNA level by dasatinib-treatment in 5 sensitive cell lines. The cells were treated with 100 nM dasatinib (+D) or DMSO (Ctrl) for 48 hours. The p value was 0.048 in paired t-test, indicating a significant reduction of PLAU mRNA following dasatinib treatment. (C) Correlation between dasatinib-induced PLAU mRNA down-regulation with the sensitivity of cell lines to dasatinib. […] The amount of uPA protein secreted into the culture medium by 50,000 viable cells was assessed by ELISA assay. […]
Cell were seeded in 24-well plates at density of 25,000 cells/well. […] Total number of cells were also quantitated using a cell counter, and the number of viable cells were assessed with Trypan Blue. The amount of uPA protein in the supernatant was determined using the uPA ELISA kit (America Diagnostica, Stamford, Conn.), and the concentrations of uPA secreted by 50,000 viable cells into the medium were calculated.

Structure (SMILES): Cc1nc(Nc2ncc(C(=O)Nc3c(C)cccc3Cl)s2)cc(N2CCN(CCO)CC2)n1 [BMS-A, N-(2-chloro-6-methylphenyl)-2-[[6-[4-(2-hydroxyethyl)-1-piperazinyl]-2-methyl-4-pyrimidinyl]amino]-5-thiazolecarboxamide]
- IC50 (16 prostate cell lines; 5 cell lines considered as resistant group): > 2000 nM
- IC50 (16 prostate cell lines; 11 cell lines designated as sensitive group): < 200 nM
- amount of uPA protein secreted into the growth medium [1]: reduced
